According to patent US11459308B2 (priority 2016, dated 2022):

Key:
rVSV-EBOV GP = test: microbe, parasite or virus in culture; type: cell-based, Zaire Ebolavirus; conditions: Zaire ebolavirus, read-out: rVSV-EBOV IC50
[1] = system: authentic EBOV (EBOV-Zaire 1995); test: microbe, parasite or virus in culture; type: cell-based, Ebola virus; conditions: Zaire ebolavirus, Vero, 48 h, read-out: infectious EBOV-Z IC50
in vitro = conditions: African green monkey

SMILES	IC50 (rVSV-EBOV GP) [µM]	IC50 [1] [µM]	CC50 (in vitro) [µM]
CC(=O)Nc1ccc(N2CCN(C)CC2)cc1NC(c1ccccc1)c1ccccc1 [MBX 3525, 2-(benzhydrylamino)-4-(4-methylpiperazin-1-yl)-1-acetamidobenzene]	4	> 20	100
CN1CCN(c2ccc3[nH]c(=O)n(C(c4ccccc4)c4ccccc4)c3c2)CC1 [MBX 3526, 1-benzhydryl-6-(4-methylpiperazin-1-yl)-1H-benzo[d]imidazol-2(3H)-one]	2.9	–	26
CN1CCN(c2ccc(NS(C)(=O)=O)c(NC(c3ccccc3)c3ccccc3)c2)CC1 [MBX 3536A, 2-(benzhydrylamino)-4-(4-methylpiperazin-1-yl)-1-(methylsulfonamido)benzene]	2.9	3.1	26
CN1CCN(c2ccc3nnn(C(c4ccccc4)c4ccccc4)c3c2)CC1 [MBX 3537A, 1-benzhydryl-6-(4-methylpiperazin-1-yl)-benzo[d][1,2,3]triazole]	2.3	2.3	41
Cc1nc2ccc(N3CCN(C)CC3)cc2n1C(c1ccccc1)c1ccccc1 [MBX 3539, 1-benzhydryl-2-methyl-6-(4-methylpiperazin-1-yl)benzo[d]imidazole]	14	> 20	77
CN1CCN(c2ccc3ncn(C(c4ccccc4)c4ccccc4)c3c2)CC1 [MBX 3540, 1-benzhydryl-6-(4-methylpiperazin-1-yl)benzo[d]imidazole]	0.8	0.9	58
O=[N+]([O-])c1ccc(N2CCNCC2)cc1NC(c1ccccc1)c1ccccc1 [MBX 3556, 1-(benzhydrylamino)-5-(piperazin-1-yl)-2-nitrobenzene]	1.4	1.1	5.2
CCN1CCN(c2ccc([N+](=O)[O-])c(NC(c3ccccc3)c3ccccc3)c2)CC1 [MBX 3557, 1-(benzhydrylamino)-5-(4-ethylpiperazin-1-yl)-2-nitrobenzene]	1.4	1.9	20
O=[N+]([O-])c1ccc(N2CCN(CCc3ccccc3)CC2)cc1NC(c1ccccc1)c1ccccc1 [MBX 3623, 2-benzhydrylamino-4-(4-phenethylpiperazin-1-yl)nitrobenzene]	> 25	–	> 100
O=[N+]([O-])c1ccc(N2CCN(c3ccccc3)CC2)cc1NC(c1ccccc1)c1ccccc1 [MBX 3624, 2-benzhydrylamino-4-(4-phenylpiperazin-1-yl)nitrobenzene]	> 25	–	> 100
COc1ccccc1C(Nc1cc(N2CCN(C)CC2)ccc1[N+](=O)[O-])c1ccccc1 (stereo not drawn) [MBX 3635, 2-[phenyl(2-methoxyphenyl)methylamino]-4-(4-methylpiperazin-1-yl)nitrobenzene]	2.5	–	14
COc1cccc(C(Nc2cc(N3CCN(C)CC3)ccc2[N+](=O)[O-])c2ccccc2)c1 (stereo not drawn) [MBX 3641, 2-[(3-methoxyphenyl)(phenyl)methylamino]-4-(4-methylpiperazin-1-yl)nitrobenzene]	> 25	–	26
COc1ccc(C(Nc2cc(N3CCN(C)CC3)ccc2[N+](=O)[O-])c2ccccc2)cc1 (stereo not drawn) [MBX 3642, 2-[(4-methoxyphenyl)(phenyl)methylamino]-4-(4-methylpiperazin-1-yl)nitrobenzene]	> 25	–	33
CN1CCN(c2ccc([N+](=O)[O-])c(NC(c3ccccc3)c3ccc(Cl)cc3)c2)CC1 (stereo not drawn) [MBX 3644, 2-[(4-chlorophenyl)(phenyl)methylamino]-4-(4-methylpiperazin-1-yl)nitrobenzene]	1.4	–	18
CN1CCN(c2ccc([N+](=O)[O-])c(NC(c3ccccc3)c3ccccn3)c2)CC1 (stereo not drawn) [MBX 3647, 2-[(pyridin-2-yl)(phenyl)methylamino]-4-(4-methylpiperazin-1-yl)nitrobenzene]	> 25	–	> 100
CN1CCN(c2ccc([N+](=O)[O-])c(NC(c3ccccc3)c3cccnc3)c2)CC1 (stereo not drawn) [MBX 3648, 2-[(pyridin-3-yl)(phenyl)methylamino]-4-(4-methylpiperazin-1-yl)nitrobenzene]	> 25	–	17
CN1CCN(c2ccc([N+](=O)[O-])c(NC(c3ccccc3)c3ccncc3)c2)CC1 (stereo not drawn) [MBX 3670, 2-[(pyridin-4-yl)(phenyl)methylamino]-4-(4-methylpiperazin-1-yl)nitrobenzene]	4.5	–	45
Cc1ccc(C(Nc2cc(N3CCN(C)CC3)ccc2[N+](=O)[O-])c2ccccc2)cc1 (stereo not drawn) [MBX 3687, 2-[(phenyl)(p-tolyl)methylamino]-4-(4-methylpiperazin-1-yl)nitrobenzene]	2.2	–	16
CN1CCN(c2ccc([N+](=O)[O-])c(NC(c3ccccc3)c3ccccc3)c2)CC1=O [MBX 3695, 2-benzhydrylamino-4-(4-methyl-3-oxopiperazin-1-yl)nitrobenzene]	16	–	> 100
CCN(CC)c1ccc([N+](=O)[O-])c(NC(c2ccccc2)c2ccccc2)c1 [MBX 3696, 2-benzhydrylamino-4-(diethylamino)nitrobenzene]	> 25	–	> 100

SMILES	IC50 (rVSV-EBOV GP) [µM]	IC50 [1] [µM]	CC50 (in vitro) [µM]
O=[N+]([O-])c1ccc(N2CCSCC2)cc1NC(c1ccccc1)c1ccccc1 [MBX 3699, 2-benzhydrylamino-4-thiomorpholino-1-nitrobenzene]	> 25	–	> 100
CN1CCCN(c2ccc([N+](=O)[O-])c(NC(c3ccccc3)c3ccccc3)c2)CC1 [MBX 3700, 2-benzhydrylamino-4-(4-methyl-1,4-diazepan-1-yl)-1-nitrobenzene]	< 0.1	–	7.6
O=[N+]([O-])c1ccc(N2CCCCC2)cc1NC(c1ccccc1)c1ccccc1 [MBX 3702, 2-benzhydrylamino-4-(piperidin-1-yl)-1-nitrobenzene]	> 25	–	> 100
CN1CCC(N(C)c2ccc([N+](=O)[O-])c(NC(c3ccccc3)c3ccccc3)c2)CC1 [MBX 3742, 2-(benzhydrylamino)-4-[methyl(1-methylpiperidin-4-yl)amino]-1-nitrobenzene]	1.5	–	3.3
O=[N+]([O-])c1ccc(N2CCC(N3CCCCC3)CC2)cc1NC(c1ccccc1)c1ccccc1 [MBX 3747, 2-(benzhydrylamino)-4-[(1,4′-bipiperidin)-1′-yl]-1-nitrobenzene]	0.58	–	7.5
CN(C)C1CCN(c2ccc([N+](=O)[O-])c(NC(c3ccccc3)c3ccccc3)c2)CC1 [MBX 3749, 2-(benzhydrylamino)-4-[4-(dimethylamino)piperidin-1-yl]-1-nitrobenzene]	0.7	–	7.7
CCOC(=O)CN1CCN(c2ccc([N+](=O)[O-])c(NC(c3ccccc3)c3ccccc3)c2)CC1 [MBX 3947, 2-(benzhydrylamino)-4-[4-(2-ethoxy-2-oxoethyl)piperazin-1-yl]-1-nitrobenzene]	18	–	> 100
c1ccc(C(c2ccccc2)n2cnc3ccc(N4CCN5CCCCC5C4)cc32)cc1 (stereo not drawn) [MBX 4211, 2-(1-benzhydryl-1H-benzo[d]imidazol-6-yl)octahydro-1H-pyrido[1,2-a]pyrazine]	2	–	195
CN1CCN(c2ccc3ncn(C(C)(C)c4ccccc4)c3c2)CC1 [MBX 4213, 6-(4-methylpiperazin-1-yl)-1-(2-phenylpropan-2-yl)-1H-benzo[d]imidazole]	200	–	> 200
c1ccc(C(c2ccccc2)n2cnc3ccc(N4CCNCC4)nc32)cc1 [MBX 4214, 3-benzhydryl-5-(piperazin-1-yl)-3H-imidazo[4,5-b]pyridine]	3	–	105
c1ccc(C(c2ccccc2)n2cnc3cnc(N4CCNCC4)cc32)cc1 [MBX 4215A, 1-benzhydryl-6-(piperazin-1-yl)-1H-imidazo[4,5-c]pyridine bis(2,2,2-trifluoroacetate)]	2.8	–	94
O=[N+]([O-])c1ccc(-c2ccncc2)cc1NC(c1ccccc1)c1ccccc1 [MBX 4277, N-benzhydryl-2-nitro-5-(pyridin-4-yl)aniline]	14.6	–	40
c1ccc(C(c2ccccc2)n2cnc3ccc(-c4ccncc4)cc32)cc1 [MBX 4278, 1-benzhydryl-6-(pyridin-4-yl)-1H-benzo[d]imidazole]	8.98	–	4.2
O=[N+]([O-])c1ccc(-c2cccnc2)cc1NC(c1ccccc1)c1ccccc1 [MBX 4279, N-benzhydryl-2-nitro-5-(pyridin-3-yl)aniline]	12.4	–	49
c1ccc(C(c2ccccc2)n2cnc3ccc(-c4cccnc4)cc32)cc1 [MBX 4294, 1-benzhydryl-6-(pyridin-3-yl)-1H-benzo[d]imidazole]	15.6	–	59
CN1CCN(c2ccc([N+](=O)[O-])c(NC3(c4ccccc4)CC3)c2)CC1 [MBX 4295, 5-(4-methylpiperazin-1-yl)-2-nitro-N-(1-phenylcyclopropyl)aniline]	16.2	–	58
CN1CCN(c2ccc([N+](=O)[O-])c(NC3(c4ccccc4)CCCC3)c2)CC1 [MBX 4296, 5-(4-methylpiperazin-1-yl)-2-nitro-N-(1-phenylcyclopentyl)aniline]	5.89	–	> 200
CN1CCN(c2ccc([N+](=O)[O-])c(NC(=O)c3ccccc3)c2)CC1 [MBX 4328, N-[5-(4-methylpiperazin-1-yl)-2-nitrophenyl]benzamide]	11.5	–	60
CCOC(=O)CC(Nc1cc(N2CCN(C)CC2)ccc1[N+](=O)[O-])c1ccccc1 (stereo not drawn) [MBX 4329, ethyl 3-((5-(4-methylpiperazin-1-yl)-2-nitrophenyl)amino)-3-phenylpropanoate]	10.4	–	45
O=[N+]([O-])c1ccc(N2CCOCC2)cc1NC(c1ccccc1)c1ccccc1 [PPZ-10]	5.5	–	> 100
